Data as given in patent publication US9758529B2, “Fused dihydro-4H-pyrazolo[5,1-C][1,4]oxazinyl compounds and analogs for treating CNS disorders” (Sunovion Pharmaceuticals Inc., priority 2015, dated 2017).
Where a name gives a salt, the structure may show the parent alone.

Tested on: mice
Assay: Neuropharmacological Assay (SmartCube)
Assay type: in vivo
Settings: i.p. 15 min before behavioral test; 3 doses, most efficacious dose(s) presented
Source text: Neurosci. […] As reported in Roberds, because psychiatric diseases generally result from disorders of cell-cell communication or circuitry, intact systems are useful in detecting improvement in disease-relevant endpoints. These endpoints are typically behavioral in nature, often requiring human observation and interpretation. To facilitate testing of multiple compounds for behavioral effects relevant to psychiatric disease, PsychoGenics, Inc. (Tarrytown, N.Y., “PGI”) developed SmartCube™, an automated system in which behaviors of compound-treated mice are captured by digital video and analyzed with computer algorithms. […] PGI Analytical Systems uses data from SmartCube™ to compare the behavioral signature of a test compound to a database of behavioral signatures obtained using a large set of diverse reference compounds. (The composition of the database as well as validation of the method is further described in Roberds). In this way, the neuropharmacological effects of a test compound can be predicted by similarity to major classes of compounds, such as antipsychotics, anxiolytics and antidepressants.
The SmartCube™ system produces an activity signature indicating the probability that the activity of the test compound at the administered dose matches a given class of neuropharmacological agents. (See, e.g., Roberds, FIGS. 2 and 3). The test compound is simultaneously compared against multiple classes of agents; thus, a separate probability is generated for each behavioral effect measured (e.g., anxiolytic activity, analgesic activity, etc.). In Table 2 and 2B, these probabilities are reported for each behavioral effect measured as follows:
where LOQ is the limit of quantification.
Provided compounds were dissolved in a mixture of Pharmasolve™ (N-methyl-2-pyrrolidone), polyethylene glycol and propylene glycol, and were injected i.p. 15 min. before the behavioral test. For each compound, injections were administered at 3 different doses. For each behavioral effect measured, results for the most efficacious dose(s) are presented.

c1ccc2c3n(nc2c1)CCOC3[C@@H]1CCCN1 (stereo partly drawn) [Compound 13, 1-((S)-pyrrolidin-2-yl)-3,4-dihydro-1H-[1,4]oxazino[4,3-b]indazole hydrochloride] was tested. Which “AD: ADHD (probability of class match)” value did it give?
Its value is “+ (LOQ≦ + <5%)”.

What about the “AG: analgesic (probability of class match)” value (from here on “AG: analgesic”) of the same compound?
The value was “+++ (25%≦ +++ <50%)”.

And the “AX: anxiolytic (probability of class match)” value (from here on “AX: anxiolytic”)?
The value was “++ (5%≦ ++ <25%)”.

What about the “CE: cognitive enhancer (probability of class match)” value (shortened to “CE: cognitive enhancer”) of the same compound?
The value was “++ (5%≦ ++ <25%)”.

What about the “DP: anti-depressant (probability of class match)” value (“DP: anti-depressant” below) of the same compound?
The value was “++ (5%≦ ++ <25%)”.

What about the “HA: hallucinogen (probability of class match)” value (shortened to “HA: hallucinogen”) of the same compound?
The value was “+ (LOQ≦ + <5%)”.

What about the “MS: mood stabilizer (probability of class match)” value (from here on “MS: mood stabilizer”) of the same compound?
Its value is “++ (5%≦ ++ <25%)”.

What about the “PS: anti-psychotic (probability of class match)” value (“PS: anti-psychotic” below) of the same compound?
The value was “+ (LOQ≦ + <5%)”.

What about the “SD: sedative hypnotic (probability of class match)” value (from here on “SD: sedative hypnotic”) of the same compound?
The value was “+ (LOQ≦ + <5%)”.

What about the “UN: uncharacterized CNS activity (probability of class match)” value (from here on “UN: uncharacterized CNS activity”) of the same compound?
The value was “+ (LOQ≦ + <5%)”.

What about the “XG: anxiogenic (probability of class match)” value (“XG: anxiogenic” for short) of the same compound?
The value was “+ (LOQ≦ + <5%)”.

CN1CCC[C@H]1C1OCCn2nc3ccccc3c21 (stereo partly drawn) [Compound 14, 1-((S)-1-methylpyrrolidin-2-yl)-3,4-dihydro-1H-[1,4]oxazino[4,3-b]indazole hydrochloride] was tested. Which “AD: ADHD (probability of class match)” value did it give?
Its value is “+ (LOQ≦ + <5%)”.

What about the “AG: analgesic” value of the same compound?
Its value is “+ (LOQ≦ + <5%)”.

And the “AX: anxiolytic” value?
The value was “+++ (25%≦ +++ <50%)”.

What about the “CE: cognitive enhancer” value of the same compound?
Its value is “++ (5%≦ ++ <25%)”.

What about the “DP: anti-depressant” value of the same compound?
Its value is “++ (5%≦ ++ <25%)”.

And the “HA: hallucinogen” value?
Its value is “+ (LOQ≦ + <5%)”.

What about the “MS: mood stabilizer” value of the same compound?
Its value is “+ (LOQ≦ + <5%)”.

What about the “PS: anti-psychotic” value of the same compound?
The value was “++ (5%≦ ++ <25%)”.

And the “SD: sedative hypnotic” value?
The value was “+ (LOQ≦ + <5%)”.

What about the “UN: uncharacterized CNS activity” value of the same compound?
Its value is “+ (LOQ≦ + <5%)”.

What about the “XG: anxiogenic” value of the same compound?
The value was “+ (LOQ≦ + <5%)”.

Which results are given for NCC1OCCn2nc3ccccc3c21 (stereo not drawn) [Compound 15, (3,4-dihydro-1H-[1,4]oxazino[4,3-b]indazol-1-yl)methanamine]?
AD: ADHD (probability of class match): ++++ (50%≦ ++++); AG: analgesic (probability of class match): ++ (5%≦ ++ <25%); AX: anxiolytic (probability of class match): + (LOQ≦ + <5%); CE: cognitive enhancer (probability of class match): + (LOQ≦ + <5%); DP: anti-depressant (probability of class match): ++ (5%≦ ++ <25%); HA: hallucinogen (probability of class match): + (LOQ≦ + <5%); MS: mood stabilizer (probability of class match): + (LOQ≦ + <5%); PS: anti-psychotic (probability of class match): + (LOQ≦ + <5%); SD: sedative hypnotic (probability of class match): + (LOQ≦ + <5%); UN: uncharacterized CNS activity (probability of class match): + (LOQ≦ + <5%); XG: anxiogenic (probability of class match): + (LOQ≦ + <5%)

For c1ccc2c3n(nc2c1)CCOC3CNC1CCC1 (stereo not drawn) [Compound 16, N-((3,4-dihydro-1H-[1,4]oxazino[4,3-b]indazol-1-yl)methyl) cyclobutanamine], which “AD: ADHD (probability of class match)” value is on record?
The value was “+ (LOQ≦ + <5%)”.

What about the “AG: analgesic” value of the same compound?
The value was “+ (LOQ≦ + <5%)”.

What about the “AX: anxiolytic” value of the same compound?
Its value is “+ (LOQ≦ + <5%)”.

And the “CE: cognitive enhancer” value?
Its value is “+ (LOQ≦ + <5%)”.

What about the “DP: anti-depressant” value of the same compound?
The value was “+ (LOQ≦ + <5%)”.

What about the “HA: hallucinogen” value of the same compound?
Its value is “+ (LOQ≦ + <5%)”.

And the “MS: mood stabilizer” value?
Its value is “+ (LOQ≦ + <5%)”.

And the “PS: anti-psychotic” value?
Its value is “+ (LOQ≦ + <5%)”.

What about the “SD: sedative hypnotic” value of the same compound?
Its value is “+ (LOQ≦ + <5%)”.

What about the “UN: uncharacterized CNS activity” value of the same compound?
The value was “+ (LOQ≦ + <5%)”.

And the “XG: anxiogenic” value?
The value was “+ (LOQ≦ + <5%)”.

For CC(C)NCC1OCCn2nc3ccccc3c21 (stereo not drawn) [Compound 17, N-((3,4-dihydro-1H-[1,4]oxazino[4,3-b]indazol-1-yl)methyl)propan-2-amine], which “AD: ADHD (probability of class match)” value is on record?
The value was “+ (LOQ≦ + <5%)”.

What about the “AG: analgesic” value of the same compound?
Its value is “+ (LOQ≦ + <5%)”.

What about the “AX: anxiolytic” value of the same compound?
Its value is “++ (5%≦ ++ <25%)”.

And the “CE: cognitive enhancer” value?
The value was “+ (LOQ≦ + <5%)”.

And the “DP: anti-depressant” value?
Its value is “++ (5%≦ ++ <25%)”.

And the “HA: hallucinogen” value?
Its value is “+ (LOQ≦ + <5%)”.

And the “MS: mood stabilizer” value?
Its value is “+ (LOQ≦ + <5%)”.

And the “PS: anti-psychotic” value?
Its value is “+ (LOQ≦ + <5%)”.

And the “SD: sedative hypnotic” value?
The value was “+ (LOQ≦ + <5%)”.

And the “UN: uncharacterized CNS activity” value?
The value was “++ (5%≦ ++ <25%)”.

And the “XG: anxiogenic” value?
Its value is “+ (LOQ≦ + <5%)”.

Which “AD: ADHD (probability of class match)” value does the source give for CCNCC1OCCn2nc3ccccc3c21.Cl (stereo not drawn) [Compound 18, N-((3,4-dihydro-1H-[1,4]oxazino[4,3-b]indazol-1-yl)methyl) ethanamine hydrogen chloride salt] here?
The value was “+ (LOQ≦ + <5%)”.

And the “AG: analgesic” value?
Its value is “++ (5%≦ ++ <25%)”.

What about the “AX: anxiolytic” value of the same compound?
Its value is “++ (5%≦ ++ <25%)”.

And the “CE: cognitive enhancer” value?
The value was “++ (5%≦ ++ <25%)”.

And the “DP: anti-depressant” value?
Its value is “+ (LOQ≦ + <5%)”.

What about the “HA: hallucinogen” value of the same compound?
The value was “+ (LOQ≦ + <5%)”.

What about the “MS: mood stabilizer” value of the same compound?
The value was “+ (LOQ≦ + <5%)”.

And the “PS: anti-psychotic” value?
Its value is “++ (5%≦ ++ <25%)”.

And the “SD: sedative hypnotic” value?
Its value is “+ (LOQ≦ + <5%)”.

And the “UN: uncharacterized CNS activity” value?
The value was “+ (LOQ≦ + <5%)”.

What about the “XG: anxiogenic” value of the same compound?
Its value is “+ (LOQ≦ + <5%)”.

Which results are given for c1ccc2c3n(nc2c1)CCOC3CN1CCCC1 (stereo not drawn) [Compound 19, 1-(pyrrolidin-1-ylmethyl)-3,4-dihydro-1H-[1,4]oxazino[4,3-b]indazole hydrogen chloride salt]?
AD: ADHD (probability of class match): + (LOQ≦ + <5%); AG: analgesic (probability of class match): ++ (5%≦ ++ <25%); AX: anxiolytic (probability of class match): ++ (5%≦ ++ <25%); CE: cognitive enhancer (probability of class match): ++ (5%≦ ++ <25%); DP: anti-depressant (probability of class match): +++ (25%≦ +++ <50%); HA: hallucinogen (probability of class match): + (LOQ≦ + <5%); MS: mood stabilizer (probability of class match): + (LOQ≦ + <5%); PS: anti-psychotic (probability of class match): + (LOQ≦ + <5%); SD: sedative hypnotic (probability of class match): + (LOQ≦ + <5%); UN: uncharacterized CNS activity (probability of class match): + (LOQ≦ + <5%); XG: anxiogenic (probability of class match): + (LOQ≦ + <5%)

What does the source list for c1ccc2c3n(nc2c1)CCOC3CN1CCOCC1 (stereo not drawn) [Compound 20, 1-(morpholinomethyl)-3,4-dihydro-1H-[1,4]oxazino[4,3-b]indazole hydrogen chloride salt]?
AD: ADHD (probability of class match): + (LOQ≦ + <5%); AG: analgesic (probability of class match): ++ (5%≦ ++ <25%); AX: anxiolytic (probability of class match): +++ (25%≦ +++ <50%); CE: cognitive enhancer (probability of class match): ++ (5%≦ ++ <25%); DP: anti-depressant (probability of class match): ++ (5%≦ ++ <25%); HA: hallucinogen (probability of class match): + (LOQ≦ + <5%); MS: mood stabilizer (probability of class match): + (LOQ≦ + <5%); PS: anti-psychotic (probability of class match): ++ (5%≦ ++ <25%); SD: sedative hypnotic (probability of class match): + (LOQ≦ + <5%); UN: uncharacterized CNS activity (probability of class match): + (LOQ≦ + <5%); XG: anxiogenic (probability of class match): + (LOQ≦ + <5%)

How did the “AD: ADHD (probability of class match)” value turn out when c1ccc2c3n(nc2c1)CCOC3CNC1CC1 (stereo not drawn) [Compound 21, N-((3,4-dihydro-1H-[1,4]oxazino[4,3-b]indazol-1-yl)methyl)cyclopropan amine hydrogen chloride salt] was run?
Its value is “+ (LOQ≦ + <5%)”.

What about the “AG: analgesic” value of the same compound?
The value was “++ (5%≦ ++ <25%)”.

And the “AX: anxiolytic” value?
The value was “++ (5%≦ ++ <25%)”.

And the “CE: cognitive enhancer” value?
The value was “+ (LOQ≦ + <5%)”.

What about the “DP: anti-depressant” value of the same compound?
The value was “++ (5%≦ ++ <25%)”.

What about the “HA: hallucinogen” value of the same compound?
The value was “+ (LOQ≦ + <5%)”.

What about the “MS: mood stabilizer” value of the same compound?
Its value is “+ (LOQ≦ + <5%)”.

And the “PS: anti-psychotic” value?
Its value is “++ (5%≦ ++ <25%)”.

And the “SD: sedative hypnotic” value?
Its value is “+ (LOQ≦ + <5%)”.

And the “UN: uncharacterized CNS activity” value?
Its value is “+ (LOQ≦ + <5%)”.

What about the “XG: anxiogenic” value of the same compound?
The value was “+ (LOQ≦ + <5%)”.
